According to PMC4939023, “Efficacy of delayed treatment of China-made Peramivir with repeated intravenous injections in a mouse influenza model: from clinical experience to basal experiment” (BMC Infectious Diseases, 2016):
Several values for one entry are separate records, joined by “and”; a condition that tells them apart may be missing. Identical values can stand only once. Entries after “also recorded” stand apart in the source; their conditions may differ. Like-named read-outs stand apart in the source and are kept apart here.

Legend:
[1] = tested on: Influenza A H1N1pdm2009 (A/GZ/GIRD07/09, H1N1); parameters: species or system BALB/C mice; details: mouse, in vivo
[2] = tested on: influenza A/H1N1; details: cited from earlier work; for weight loss and mortality: single intramuscular injection 10 mg/kg, mice infected with influenza A/H1N1
[3] = tested on: influenza A (H1N1) 2009 virus; details: cited from earlier work
[4] = tested on: Influenza A H1N1pdm2009 (A/GZ/GIRD07/09, H1N1); parameters: species or system BALB/C mice; details: mouse, in vivo; remark: listed apart in the source
[5] = mouse, in vivo
[6] = tested on: influenza; details: given as late as 60 h after infection; cited from earlier work
[7] = cited from earlier work
[8] = oral administration; no reference given; cited from earlier work
[9] = tested on: influenza virus; details: repeated intravenous injections for 5 days, patients at high risk of complications; cited from earlier work
[10] = tested on: influenza; details: cited from earlier work
[11] = tested on: H7N9; parameters: species or system human patients; details: human, in vivo
[12] = tested on: Influenza A H1N1pdm2009 (A/GZ/GIRD07/09, H1N1); parameters: species or system BALB/C mice; details: mouse, in vivo; remark: listed apart in the source
[13] = tested on: Influenza B (B/Guangzhou/GIRD08/09); parameters: species or system BALB/C mice; details: mouse, in vivo

SMILES: CCC(CC)[C@H](NC(C)=O)[C@@H]1[C@H](O)[C@@H](C(=O)O)C[C@H]1N=C(N)N [Peramivir]
- efficacy of delayed treatment (survival rate) vs virus group [1]: efficacy was observed
- efficacy of delayed treatment (survival) [1]: no efficacy
- mean number of days to death [1]: > 15 days
- survival rate [1]: 100% and 80% and 70%
- survival rate vs virus group [1]: enhanced
- difference in weight loss suppression compared with the virus group ([1]; iv, 60 mg/kg): about 9%
- weight loss suppression compared with the virus group ([1]; iv, 60 mg/kg): significant weight loss suppression
- prevention of death ([2]; single intramuscular dose 10 mg/kg administered at 24 or 48 h p.i.): prevented death
- weight loss and mortality [2]: significantly reduces weight loss and mortality
- survival rates and viral titers in the lungs ([3]; 40 mg/kg·d i.v. QD x 20 days starting at 24, 48 or 72 h p.i.): increased survival rates and reduced viral titers in the lungs
- drug-related toxicity ([3]; repeated intravenous injections 40 mg/kg·d for 20 days): no obvious signs of drug-related toxicity
- lung virus titer vs virus group [4]: reduced lung virus titers
- concentration in the blood of virus-infected mice compared with normal mice [5]: no significant differences
- prevention of death [6]: able to prevent death
- toxicity or side effects ([7]; 1000 mg/kg·d administered for 5 days): no signs of toxicity or side effects
- toxicity or side effects ([7]; doses as high as 3000 mg/kg·d administered as a single dose): no signs of toxicity or side effects
- oral bioavailability [8]: ≤ 3%
- clinical effect [9]: beneficial effects
- safety [9]: no major safety issues
- in vitro activity relative to Oseltamivir carboxylate and Zanamivir [10]: comparable to, or better than
- Clinical outcome [11]: Survival; also recorded: Death
- treatment efficacy in H7N9 patients [11]: a degree of treatment efficacy; also recorded: some treatment efficacy
- lung index vs virus group [12]: improvement
- lung index vs virus group [13]: improved

SMILES: CC(=O)N[C@H]1[C@H]([C@H](O)[C@H](O)CO)OC(C(=O)O)=C[C@@H]1N=C(N)N [Zanamivir]
- Clinical outcome [11]: Death; also recorded: Survival

SMILES: CCOC(=O)C1=C[C@@H](OC(CC)CC)[C@H](NC(C)=O)[C@@H](N)C1 [Oseltamivir]
- efficacy of delayed treatment (survival) [1]: no efficacy
- weight loss and mortality [2]: no efficacy
- lung virus titer vs virus group [4]: reduced
- Clinical outcome [11]: Survival; also recorded: Death
